We go through 1 compound from US20250210194A1, “METHODS AND SYSTEMS FOR D[…] HETEROGENEITY” (Foundation Medicine, Inc., priority 2022, published 2025).

The experiment concerns EGFR driver alteration-positive NSCLC patients. In words: Progression free survival (PFS) from start of 1st line Osimertinib in a real-world NSCLC patient cohort (Kaplan Meier). Type of experiment: in vivo, human. To be noted: for median progression free survival (mPFS): 45 patients, 1st line Osimertinib. An excerpt:
Starting with a patient cohort of 15,035 patients, the data was filtered (for biopsy type and bait set). The data was then filtered to exclude data for patients for whom a computational tumor purity was less than or equal to 20% or for whom a computational tumor purity value was missing. The remaining patient data was divided according to whether the samples were early-stage specimens, late-stage specimens, or of ambiguous origin. For the late-stage specimens, data for patients who were first diagnosed prior to Jan. […] Finally, data was selected for N=135 1st line Osimertinib-treated, EGFR driver alteration-positive NSCLC patients for whom tumor samples were sequenced at most a year prior to start of therapy.
The group of 135 patients were then divided into three tertiles with 45 patients each. Progression free survival (PFS) from start of 1st line Osimertinib was determined as follows: • Index state was the start of 1st line therapy. • Progression date: for patients who received a subsequent line of therapy, the event date was the earliest progression event that occurred more than 14 days after the index date, or date of death, provided that the progression event or date of death occurred before the start date of the subsequent line of therapy plus 14 days. For patients without a subsequent line of therapy, the event date was the earliest progression event that occurred more than 14 days after the index date, or the date of death. • Censor date: patients with a subsequent line of therapy were censored at their last clinic note date if it occurred between the index date and the start date of the subsequent line of therapy plus 14 days. Patients for whom the last clinic note date was not available within this window were censored at their last date of confirmed structured activity (i.e., the last available visit date within the Visit Table) within this time window. Patients without a subsequent line of therapy were censored at their last clinic note date.

Turning to `C=CC(=O)Nc1cc(Nc2nccc(-c3cn(C)c4ccccc34)n2)c(OC)cc1N(C)CCN(C)C` [Osimertinib], the “median progression free survival (mPFS)” value is reported as 16.5 months (first tertile (lowest tumor heterogeneity score)), 10.5 months (second tertile (intermediate tumor heterogeneity score)) and 11.9 months (third tertile (highest tumor heterogeneity score)). The “median PFS” value (high score group: tumor heterogeneity score >=1, 1st line Osimertinib) is 10.8 months and the “median PFS” value (low score group: tumor heterogeneity score <1, 1st line Osimertinib) was 16.0 months. Moreover, the mPFS is, setting by setting: (score category High (THS >=1), EGFR CCF category High (CCF >=0.5), N=74) 11.11; (score category High (THS >=1), EGFR CCF category Low (CCF <0.5), N=12) 6.54 months; (score category Low (THS <1), EGFR CCF category High (CCF >=0.5), N=39) 16.01 months. Where the note is “whole cohort, N=135 EGFR driver alteration-positive NSCLC patients”, the “Median progression free survival (mPFS) from start of 1st line Osimertinib” value is 12.7 months.
